Assay results from the NIST ThermoML archive (doi:10.1016/j.jct.2012.11.004).
± gives the expanded uncertainty stated by the source.

Test: mn = molality of the nth substance listed, in mol/kg
Details: 101 kPa, Liquid; for mass density: Vibrating tube method; for speed of sound: Pulse-echo method

O=S(=O)([O-])C(F)(F)F.O=S(=O)([O-])C(F)(F)F.O=S(=O)([O-])C(F)(F)F.[Lu+3] [lutetium(III) trifluoromethanesulfonate] + CN(C)C=O
Details | mass density, 283.15 K [kg/m3] | mass density, 293.15 K [kg/m3] | mass density, 298.15 K [kg/m3] | mass density, 303.15 K [kg/m3] | mass density, 313.15 K [kg/m3] | mass density, 323.15 K [kg/m3] | mass density, 333.15 K [kg/m3] | speed of sound, 298.15 K [m/s]
m1 = 0.02151 | 967.66 ± 0.93 | 958.14 ± 0.93 | 953.37 ± 0.93 | 948.59 ± 0.93 | 939.01 ± 0.93 | 929.39 ± 0.93 | 919.7 ± 0.93 | 1455.4 ± 1.3
m1 = 0.02883 | 970.96 ± 0.94 | 961.44 ± 0.93 | 956.67 ± 0.93 | 951.89 ± 0.93 | 942.3 ± 0.93 | 932.66 ± 0.93 | 922.98 ± 0.93 | 1454.7 ± 1.3
m1 = 0.03776 | 975 ± 0.94 | 965.46 ± 0.94 | 960.69 ± 0.94 | 955.91 ± 0.94 | 946.32 ± 0.94 | 936.69 ± 0.94 | 927 ± 0.94 | 1454 ± 1.3
m1 = 0.04886 | 980.05 ± 0.95 | 970.51 ± 0.95 | 965.73 ± 0.95 | 960.95 ± 0.95 | 951.35 ± 0.94 | 941.71 ± 0.94 | 932.02 ± 0.94 | 1452.9 ± 1.3
m1 = 0.0599 | 985.11 ± 0.96 | 975.57 ± 0.96 | 970.79 ± 0.96 | 966.01 ± 0.96 | 956.39 ± 0.96 | 946.76 ± 0.95 | 937.05 ± 0.95 | 1451.8 ± 1.3
m1 = 0.07513 | 992.17 ± 0.97 | 982.63 ± 0.97 | 977.84 ± 0.97 | 973.05 ± 0.97 | 963.43 ± 0.97 | 953.77 ± 0.97 | 944.07 ± 0.96 | 1450.5 ± 1.3
m1 = 0.09644 | 1002.19 ± 0.99 | 992.62 ± 0.99 | 987.83 ± 0.98 | 983.03 ± 0.98 | 973.4 ± 0.98 | 963.72 ± 0.98 | 954 ± 0.98 | 1448 ± 1.3
m1 = 0.1156 | 1011.35 ± 1 | 1001.77 ± 1 | 996.97 ± 1 | 992.16 ± 1 | 982.52 ± 1 | 972.84 ± 1 | 963.09 ± 1 | 1445.9 ± 1.3
m1 = 0.1337 | 1020.13 ± 1 | 1010.53 ± 1 | 1005.72 ± 1 | 1000.91 ± 1 | 991.25 ± 1 | 981.57 ± 1 | 971.83 ± 1 | 1444.2 ± 1.4
m1 = 0.1557 | 1031 ± 1.1 | 1021.38 ± 1 | 1016.56 ± 1 | 1011.75 ± 1 | 1002.08 ± 1 | 992.37 ± 1 | 982.6 ± 1 | 1441.8 ± 1.4
m1 = 0.1744 | 1040.3 ± 1.1 | 1030.66 ± 1.1 | 1025.84 ± 1.1 | 1021.02 ± 1.1 | 1011.33 ± 1 | 1001.62 ± 1 | 991.84 ± 1 | 1439.7 ± 1.4

O=S(=O)([O-])C(F)(F)F.[Na+] [sodium trifluoromethanesulfonate] + CN(C)C=O
Details | mass density, 283.15 K [kg/m3] | mass density, 293.15 K [kg/m3] | mass density, 298.15 K [kg/m3] | mass density, 303.15 K [kg/m3] | mass density, 313.15 K [kg/m3] | mass density, 323.15 K [kg/m3] | mass density, 333.15 K [kg/m3] | speed of sound, 298.15 K [m/s]
m1 = 0.03242 | 961.31 ± 0.31 | 951.8 ± 0.31 | 947.04 ± 0.31 | 942.26 ± 0.31 | 932.69 ± 0.31 | 923.07 ± 0.31 | 913.39 ± 0.31 | –
m1 = 0.04301 | 962.37 ± 0.31 | 952.86 ± 0.31 | 948.1 ± 0.31 | 943.33 ± 0.31 | 933.75 ± 0.31 | 924.13 ± 0.31 | 914.46 ± 0.31 | –
m1 = 0.05649 | 963.72 ± 0.31 | 954.21 ± 0.31 | 949.44 ± 0.31 | 944.67 ± 0.31 | 935.1 ± 0.31 | 925.48 ± 0.31 | 915.81 ± 0.31 | –
m1 = 0.07002 | 965.07 ± 0.31 | 955.56 ± 0.31 | 950.8 ± 0.31 | 946.03 ± 0.31 | 936.46 ± 0.31 | 926.83 ± 0.31 | 917.16 ± 0.31 | 1456.8 ± 1.3
m1 = 0.08981 | 967.04 ± 0.31 | 957.54 ± 0.31 | 952.77 ± 0.31 | 948 ± 0.31 | 938.43 ± 0.31 | 928.81 ± 0.31 | 919.14 ± 0.31 | 1456.7 ± 1.3
m1 = 0.1114 | 969.21 ± 0.32 | 959.69 ± 0.32 | 954.93 ± 0.32 | 950.16 ± 0.32 | 940.6 ± 0.32 | 930.98 ± 0.32 | 921.31 ± 0.32 | 1456.6 ± 1.3
m1 = 0.1445 | 972.54 ± 0.32 | 963.02 ± 0.32 | 958.25 ± 0.32 | 953.48 ± 0.32 | 943.91 ± 0.32 | 934.29 ± 0.32 | 924.63 ± 0.32 | 1456.4 ± 1.3
m1 = 0.1748 | 975.61 ± 0.32 | 966.08 ± 0.32 | 961.32 ± 0.32 | 956.54 ± 0.32 | 946.97 ± 0.32 | 937.35 ± 0.32 | 927.69 ± 0.32 | 1456.2 ± 1.3
m1 = 0.2026 | 978.41 ± 0.33 | 968.91 ± 0.33 | 964.12 ± 0.33 | 959.34 ± 0.33 | 949.76 ± 0.32 | 940.13 ± 0.32 | 930.5 ± 0.32 | 1456.1 ± 1.3
m1 = 0.239 | 982.12 ± 0.33 | 972.58 ± 0.33 | 967.82 ± 0.33 | 963.03 ± 0.33 | 953.44 ± 0.33 | 943.82 ± 0.33 | 934.15 ± 0.33 | 1455.9 ± 1.3
m1 = 0.2681 | 985.09 ± 0.33 | 975.55 ± 0.33 | 970.79 ± 0.33 | 966.01 ± 0.33 | 956.41 ± 0.33 | 946.79 ± 0.33 | 937.1 ± 0.33 | 1455.7 ± 1.3
